Data on 14 molecules can be found in patent US20100168112A1, “2-Substituted and 4-substituted aryl nitrone compounds” (RENOVIS, INC., priority 2004, published 2010).

Where two headings read alike, the source gives them in different places.

The nature of data set [1]: Microsomal stability in rat liver microsomes. It is filed as in vitro ADME. The following applies: rat liver microsomes 0.5 mg/ml, 1 mM NADPH, ~500 ng/ml compound, 37° C. How it is done:
Frozen Sprague-Dawley rat liver microsomes (RLM) were thawed on ice and gently mixed before use. The final reaction mixture consisted of a nitrone compound of this invention (at ˜500 ng/ml), 1 mM NADPH, and 0.5 mg/ml of RLM protein in 0.1 M PBS (pH7.4), with organic solvent concentration not exceeding 1% (v/v). Per set of incubations, a positive control compound was included. The mixture was first pre-incubated 3 to 5 minutes at 37° C. without NADPH, and the reaction was then initialized by the addition of NADPH and incubated at 37° C. for up to 30 minutes. An aliquot of the reaction mixture was sampled at the initiation of the reaction and at designated time after reaction started. The drawn samples were quenched with acetonitrile, diluted with mobile phase to ensure the detection of test article in the linear range, and analyzed by LC/MS/MS. Half-life or percentage of remaining nitrone compound was calculated using standard methods. A similar method, or a slight variation of it, was used to test the stability of nitrones in human liver microsomes (HLM).

Data set [2] can be described thus: Pharmacokinetic evaluation following intravenous and oral administration in rats. The format is in vivo. The note with it: male, Sprague-Dawley; for Cmax / Tmax / bioavailability: 5 mg/kg; for Cmax: rat plasma; for Cmax / Tmax: oral gavage, 2 mg/mL at 2.5 mL/kg; for clearance / Vd / Tmax / bioavailability / half-life: plasma, rat; for clearance / Vd / half-life: 1 mg/kg; for clearance / Vd: intravenous administration, 1 mg/mL at 1.0 mL/kg; for clearance: read-out: CI (clearance) (converted); for Vd: read-out: Vd (volume of distribution); for bioavailability: po 2 mg/mL at 2.5 mL/kg vs iv 1 mg/mL at 1.0 mL/kg, dose-normalized, read-out: F (%) oral bioavailability; for half-life: intravenous, read-out: T1/2 elimination half life (converted). The essentials:
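Male Sprague-Dawley rats, fasted, dosed iv (1 mg/mL formulation, 1.0 mL/kg, jugular or tail vein) or by oral gavage (2 mg/mL suspension, 2.5 mL/kg). Plasma sampled from 2 min to 480 min, some to 24 h, and quantified by LC-MS/MS (MRM). Parameters from noncompartmental analysis.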

Data set [3] is described as follows: Solubility measurement at pH 7.4. The format is physicochemical. The following applies: aqueous buffer, thermodynamic from solid, phosphate buffer pH 7.4, room temperature. How it is done:
Nitrone compounds (>3 mg) of this invention were mixed with a phosphate buffer at pH 7.4 to make a >0.3 mg/mL mixture. The mixture was vortexed for more than 2 hours and equilibrated over 12 hours at room temperature. The equilibrated mixture was used to saturate a 0.45 μm Tuffryn syringe filter. After saturating, the remainder of the mixture was filtered through the saturated filter. The filtrate was diluted by 1, 10, 100, and 1000 fold and analyzed using a LC/MS/MS method with standard curve ranging from 1 to 1000 ng/mL.

Data set [4] in a line: DPPH free radical-scavenging/antioxidant assay. It is filed as biochemical. The following applies: 50 μM DPPH in 80% methanol; 24 h time point; read-out: EC50 (concentration at which a compound reduces by 50% the peak absorbance of DPPH at 520 nm). The essentials: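 Compounds diluted 100-fold from DMSO stocks into 50 μM DPPH in 80% methanol; absorbance at 520 nm followed kinetically to steady state, with the 24 h reading used. EC50 interpolated from OD520 versus concentration; Trolox, BHA, PBN and S-PBN as positive controls, DMSO as vehicle.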

Data set [5] can be described thus: Plasma protein binding (equilibrium dialysis), human plasma. The format is in vitro ADME. The following applies: 1 μg/mL in plasma, dialysis vs phosphate buffer pH 7.4 overnight at 37° C., read-out: Plasma Protein Binding % Bound Human (converted). As to the method: (§1) Nitrone compounds of this invention were individually dissolved in DMSO to make a stock solution of 1 mg/mL. The compound was spiked into plasma to achieve a final concentration of 1 μg/mL. Spiked plasma and phosphate buffer (0.1M, pH 7.4), 200 μl each, were added to the opposite sides of the membrane in a 96-well equilibrium dialyzer. The dialyzer plate was then covered and equilibrated overnight at 37° C. on an orbital shaker. Aliquots were taken from the plasma and the buffer compartments and prepared by adding blank plasma to samples from the buffer compartments and drug-free phosphate buffer to samples from the plasma compartments to eliminate the matrix effects. The samples were extracted using protein precipitation procedure by adding CH3CN. The samples were analyzed using a LC/MS/MS method. The percentage of free and bound nitrone compound were calculated according to the following formula:
(§2) %Free=[Free Drug/Total Drug]*100=[(Peak Area)buffer/(Peak Area)serum]*100%Bound=100%Free

Data set [6] can be described thus: Plasma protein binding (equilibrium dialysis), rat plasma. The format is in vitro ADME. The note with it: 1 μg/mL in plasma, dialysis vs phosphate buffer pH 7.4 overnight at 37° C., read-out: Plasma Protein Binding % Bound Rat (converted). As to the method: as §1, §2
Setting [7] is: read-out: Solubility @ pH 7.4 (μg/mL).

Turning to `CC(C)(C)/[N+]([O-])=C/c1ccc(C(=O)O)cc1` [Compound 13, N-tert-Butyl-C-(4-carboxy-phenyl)nitrone], in data set [1], the “% of Nitrone Remaining at 30 min (Rat)” value came to 100%. In data set [2], the Cmax turned out to be 5580 ng/mL, the clearance is 12.8 mL/min/kg, the Vd came to 0.41 L/kg and the Tmax was 19.8 min. In data set [2], the bioavailability came to 64.7% and the half-life is 22.2 min. Further, the solubility in data set [3] (read-out: Solubility @ pH 7.4) was 9040 µM. Besides, the solubility in data set [3] (setting [7]) is 2000 µg/mL.

For the molecule `CC(C)(C)NC(=O)c1ccc(/C=[N+](\[O-])C(C)(C)C)cc1` [Compound 18, N-(tert-Butyl)-C-[4-(N-tert-butylcarbamoyl)phenyl]nitrone], the “% of Nitrone Remaining at 30 min (Rat)” value in data set [1] was found to be 100%. Also, in data set [2], the Cmax is 2240 ng/mL, the clearance is 21.5 mL/min/kg, the Vd was 0.62 L/kg and the Tmax amounted to 25.2 min. For the same molecule, in data set [2], the bioavailability was 75.1% and the half-life is 19.8 min. The solubility in data set [3] (read-out: Solubility @ pH 7.4) came out at 1360 µM. Besides, the solubility in data set [3] (setting [7]) was 376 µg/mL.

As for `CC(C)(C)/[N+]([O-])=C/c1ccc(C(N)=O)cc1` [Compound 19], the “% of Nitrone Remaining at 30 min (Rat)” value in data set [1] turned out to be 100%. In addition, in data set [2], the highest level (Cmax) was 3000 ng/mL, the clearance was 2.33 mL/min/kg, the Vd came to 0.74 L/kg and the Tmax is 19.8 min. Further, in data set [2], the bioavailability was found to be 39.5% and the half-life was 218 min. The solubility in data set [3] (read-out: Solubility @ pH 7.4) is 14200 µM. Also, the solubility in data set [3] (setting [7]) stood at 3130 µg/mL.

With `CCN(CC)S(=O)(=O)c1ccccc1/C=[N+](\[O-])C(C)(C)C` [Compound 30, N-tert-Butyl-C-(2-diethylsulfamoylphenyl)nitrone], the “% of Nitrone Remaining at 30 min (Rat)” value in data set [1] came to 7.4%. For the same molecule, in data set [2], the concentration peaked (Cmax) at 40 ng/mL, the clearance is 93.8 mL/min/kg, the Vd was 4.15 L/kg and the Tmax was determined as 4.98 min. Also, in data set [2], the bioavailability is 1.7% and the half-life is 30.6 min. For the same molecule, the solubility in data set [3] (read-out: Solubility @ pH 7.4) was 2530 µM. The solubility in data set [3] (setting [7]) was found to be 791 µg/mL. The EC50 in data set [4] is > 1000 µM.

Take `CCN(CC)S(=O)(=O)c1ccccc1/C=[N+](\[O-])C1CCCCC1` [Compound 31, N-Cyclohexyl-C-(2-diethylsulfamoylphenyl)nitrone]: the “% of Nitrone Remaining at 30 min (Rat)” value in data set [1] is on record as 0%. The results for the solubility in data set [3] (read-out: Solubility @ pH 7.4) and in data set [3] (setting [7]) were 2890 µM and 978 µg/mL, respectively. In addition, the EC50 in data set [4] is > 1000 µM.

As for `CCN(CC)S(=O)(=O)c1ccccc1/C=[N+](\[O-])Cc1ccccc1` [Compound 32, N-Benzyl-C-(2-diethylsulfamoylphenyl)nitrone], the “% of Nitrone Remaining at 30 min (Rat)” value in data set [1] worked out at 0%. For the same molecule, in data set [4], the EC50 was > 1000 µM.

For `O=S(=O)(c1ccccc1/C=[N+](\[O-])C1CCCCC1)N1CCCCC1` [Compound 34, N-Cyclohexyl-C-[2-(piperidine-1-sulfonyl)phenyl]nitrone], the “% of Nitrone Remaining at 30 min (Rat)” value in data set [1] is reported as 0%. The solubility was 1420 µM in data set [3] (read-out: Solubility @ pH 7.4) and 500 µg/mL in data set [3] (setting [7]). Also, in data set [4], the EC50 was > 1000 µM.

For `O=S(=O)(c1ccccc1/C=[N+](\[O-])Cc1ccccc1)N1CCCCC1` [Compound 35, N-Benzyl-C-[2-(piperidine-1-sulfonyl)phenyl]nitrone], in data set [1], the “% of Nitrone Remaining at 30 min (Rat)” value came to 0%. Besides, the results for the solubility in data set [3] (read-out: Solubility @ pH 7.4) and in data set [3] (setting [7]) were 107 µM and 38.4 µg/mL, respectively. The EC50 in data set [4] was > 1000 µM.

In the case of `CCS(=O)(=O)c1ccc(/C=[N+](\[O-])C(C)(C)C)cc1` [Compound 67, N-tert-Butyl-C-(4-ethanesulfonylphenyl)nitrone], in data set [2], the Cmax was found to be 4760 ng/mL, the clearance is 1.17 mL/min/kg, the Vd was 0.42 L/kg and the Tmax was found to be 79.8 min. Also, in data set [2], the bioavailability stood at 46.4% and the half-life is 266 min. For the same molecule, in data set [5], the fraction unbound at 1 μg/mL is 0.864. Moreover, the fraction unbound at 1 μg/mL in data set [6] is 0.78. In data set [4], the EC50 is > 1000 µM.

As to `CCS(=O)(=O)c1ccccc1/C=[N+](\[O-])C(C)(C)C` [Compound 68, N-tert-Butyl-C-(2-ethanesulfonylphenyl)nitrone], in data set [2], the highest level (Cmax) was 2110 ng/mL, the clearance is 7.83 mL/min/kg, the Vd is 0.63 L/kg and the Tmax amounted to 59.4 min. Besides, in data set [2], the bioavailability was 36.4% and the half-life is 55.8 min. The fraction unbound at 1 μg/mL in data set [5] is 0.781. In data set [6], the fraction unbound at 1 μg/mL is 0.783. Also, in data set [4], the EC50 is 500 to 1000 µM.

With `CC(C)S(=O)(=O)c1ccccc1/C=[N+](\[O-])C(C)(C)C` [Compound 69, N-tert-Butyl-C-[2-(2-propanesulfonyl)phenyl]nitrone], in data set [2], the Cmax worked out at 1840 ng/mL, the clearance was 14 mL/min/kg, the Vd was found to be 0.76 L/kg and the Tmax is 11.4 min. Besides, in data set [2], the bioavailability amounted to 54.9% and the half-life is 38.4 min. The fraction unbound at 1 μg/mL in data set [5] was 0.532. Further, the fraction unbound at 1 μg/mL in data set [6] was 0.755. In addition, the EC50 in data set [4] is > 1000 µM.

For the molecule `CC(C)S(=O)(=O)c1ccc(/C=[N+](\[O-])C(C)(C)C)cc1` [Compound 70, N-tert-Butyl-C-[4-(2-propanesulfonyl)phenyl]nitrone], in data set [2], the Cmax worked out at 1270 ng/mL, the clearance was 20 mL/min/kg, the Vd turned out to be 1.07 L/kg and the Tmax was 29.4 min. Further, in data set [2], the bioavailability was determined as 52.2% and the half-life was 37.2 min. Further, the fraction unbound at 1 μg/mL in data set [5] was 0.796. Besides, the fraction unbound at 1 μg/mL in data set [6] was 0.718. The EC50 in data set [4] was > 1000 µM.

Take `CC(C)(C)/[N+]([O-])=C/c1ccc(S(=O)(=O)C2CCCC2)cc1` [Compound 71, N-tert-Butyl-C-[4-(cyclopentanesulfonyl)phenyl]nitrone]: in data set [2], the peak level (Cmax) was 108 ng/mL, the clearance is 31 mL/min/kg, the Vd turned out to be 1.66 L/kg and the Tmax worked out at 16.8 min. Moreover, in data set [2], the bioavailability was found to be 5.87% and the half-life is 45.6 min. Moreover, the fraction unbound at 1 μg/mL in data set [5] was 0.544. The fraction unbound at 1 μg/mL in data set [6] is 0.484. In data set [4], the EC50 was > 1000 µM.

`CC(C)(C)/[N+]([O-])=C/c1ccc(C(F)(F)F)cc1S(C)(=O)=O` [Compound 72, N-tert-Butyl-C-[2-methanesulfonyl-4-trifluoromethylphenyl]nitrone]: in data set [2], the highest level (Cmax) was 1520 ng/mL, the clearance was 11 mL/min/kg, the Vd was determined as 2.69 L/kg and the Tmax stood at 19.2 min. In data set [2], the bioavailability was determined as 59.8% and the half-life is 169 min. The fraction unbound at 1 μg/mL in data set [5] was 0.367. The fraction unbound at 1 μg/mL in data set [6] was 0.319. Moreover, in data set [4], the EC50 is > 1000 µM.
